Measured values as given in patent US8486920B2, “Composition and method for controlling plant diseases” (priority 2008, dated 2013).
Like-named read-outs stand apart in the source and are kept apart here.

Tested on: Pythium ultimum, pathogen of cucumber damping-off
Format: in vivo
Conditions: cucumber (Sagamihanjiro) seed treatment, 18° C., 13 days
Description: An acetone solution of ethaboxam and an acetone solution of tolclofos-methyl were mixed to prepare mixed liquids containing ethaboxam and tolclofos-methyl in predetermined concentration. These mixed liquids were adhered on the surface of cucumber (Sagamihanjiro) seeds and allowed to stand still overnight. A plastic pot was filled with sandy soil and the seeds were disseminated on it. Then the seeds were covered with sandy soil which had been mixed with a bran medium on which Pythium ultimum, pathogen of cucumber damping-off, had been allowed to grow. They were irrigated and allowed to grow at 18° C. under humidity for 13 days, and thereafter control effect was checked.
As a comparison, acetone solutions containing ethaboxam in the predetermined concentration and acetone solutions containing tolclofos-methyl in the predetermined concentration were prepared and subjected to similar tests.
The incidence of disease was calculated by Equation 1 and the control value was calculated by Equation 2 based on the incidence of disease.
A: Incidence of disease of plant in untreated area
B: Incidence of disease of plant in treated area
E=X+Y−(X×Y)/100 “Equation 2”

For `CCNc1nc(CC)c(C(=O)NC(C#N)c2cccs2)s1` (stereo not shown) [Ethaboxam], the Actual control value (ethaboxam alone 5 g ai/100 kg-seed) was 25% and the Actual control value (ethaboxam alone 10 g ai/100 kg-seed) was 58%.
With `COP(=S)(OC)Oc1c(Cl)cc(C)cc1Cl` [tolclofos-methyl] the Actual control value (tolclofos-methyl alone 100 g ai/100 kg-seed) was 0.0% and the Actual control value (tolclofos-methyl alone 200 g ai/100 kg-seed) was 0.0%.
